Assay results: patent publication US11897917B2, “Bioconjugation of polypeptides” (The University of York, priority 2017, dated 2024)
Like-named read-outs stand apart in the source and are kept apart here.

How the values were obtained:
glyoxyl-LYRAG 16A = assay: screening of organocatalysts and aldehyde donors for OPAL reaction
Protocol: Initially a panel of secondary amines was screened to investigate their ability to catalyse the ligation using a model peptide substrate, glyoxyl-LYRAG 16A and acetaldehyde as an aldehyde donor 32. Second order rate constants for each catalyst (33-38) at 1, 10, and 25 mM loadings were obtained. Next the nature of the α-carbon substituent of the aldehyde donor was investigated by performing reactions using aldehyde donors bearing an aryl substituent (e.g. phenyl acetylaldehyde). Reactions were as shown in Scheme 7 below.
Encouraged by the biological compatibility and site selectivity in these preliminary ligations, attention next turned to optimizing the OPAL by focusing on the choice of organocatalyst and aldehyde donor species. Initially a panel of secondary amines (33-38) were screened to investigate their ability to catalyse the ligation using a model peptide substrate α-oxo-aldehyde-LYRAG 16A and acetaldehyde 32, and second order rate constants were obtained for each catalyst at 1, 10, and 25 mM loadings (Table 4).

GFP(Y39ThzK) 2B = GFP(Y39ThzK) 2B (Aequorea victoria, UniProt P42212, F64L/H231L/S65T/V163A/Y39K); conditions: for effect on GFP (denaturation / unfolding): initial screen, 100 equivalents
Protocol: Palladium reagent 9 to 12 (stock 550 mM in DMSO, final concentration 33 mM) was added to 2b (stock 330 μM in buffer D1, final concentration 300 μM) in a 0.5 mL Eppendorf tube. The reaction mixture was vortex mixed for 1 s and incubated in a water bath at 37° C. The reaction was quenched by the addition of DTT (ca. 5 mg) and centrifuged (5000×g, 2 min). The supernatant was decanted and desalted using a PD SpinTrap G25 column (GE Healthcare Life Sciences) into H2O for mass spectrometry analysis or further manipulation.
Initially a reaction was set up using 25 μM of 2B (final concentration), 100 μM palladium catalyst (final concentration) in PBS pH 7.4. The reaction mix was then incubated at 37° C. for 1 hour before addition of 1 μl of 1% 3-mercaptopropanoic acid solution for every 10 μl of reaction solution in order to quench excess catalyst. Quenched solution was then incubated at room temperature for 15 minutes and then desalted using a PD SpinTrap G25 column (GE Healthcare Life Sciences) into H2O for mass spectrometry analysis or further manipulation. Efficiency of decaging was determined by ESI-MS.
This reaction process was repeated using protein concentrations of 2B up to 300 μM and catalyst concentrations.
9-12 were trialled at 37° C. at pH 7.4 in order to maintain biocompatibility over a range of concentrations and time intervals (Table 1).

[1] = test system: α-phenyl-β-hydroxy aldehyde-LYRAG 50; assay: screening of aniline catalysts for oxime ligation of aldol-LYRAG; conditions: 100 mM catalyst, 37° C., 18 hours
Protocol: […] The solution as then charged with an aniline catalyst 56-59 (1M, 50 μl, DMSO). The reaction was vortexed, and allowed to sit at 37° C. for 18 hours without further agitation. Conversion to the product 52 was confirmed by LC-MS analysis.

[2] = test system: α-phenyl-β-hydroxy aldehyde-LYRAG 50; assay: screening of aniline catalysts and buffer for retro-aldol decomposition of aldol-LYRAG
Protocol: The solution was then charged with an aniline catalyst (1M in 50 μl DMSO) selected from compounds 56, 57, 58 and 59 as shown in Scheme 10 below. The reaction was vortexed, and allowed to sit at 37° C. for 18 hours without further agitation. Conversion to the product 16A/16B was confirmed by LC-MS analysis.
[…] The solution was then charged with p-anisidine catalyst 57 (1M, 50 μl, DMSO). The reaction was vortexed, and allowed to sit at 37° C. for 18 hours without further agitation (Scheme 11). Conversion to the product 16A/16B was confirmed by LC-MS analysis.

[3] = organocatalyst loading 1 mM, Donor R group = CH3
[4] = organocatalyst loading 10 mM, Donor R group = CH3
[5] = organocatalyst loading 25 mM, Donor R group = CH3
[6] = organocatalyst loading 1 mM, Donor R group = Phenyl-alanine
[7] = organocatalyst loading 10 mM, Donor R group = Phenyl-alanine
[8] = organocatalyst loading 25 mM, Donor R group = Phenyl-alanine
[9] = 100 equiv. [Pd], 6 h, 37° C., pH 7.4
[10] = pH 7.5, 50 to 16A, PB 200 mM, 37° C., 18 hours

## Pyrrolidine [compound 34]
glyoxyl-LYRAG 16A; [3]
  Second Order Rate Constant: 0.0005 M⁻¹ s⁻¹
glyoxyl-LYRAG 16A; [4]
  Second Order Rate Constant: 0.0037 M⁻¹ s⁻¹
glyoxyl-LYRAG 16A; [5]
  Second Order Rate Constant: 0.0058 M⁻¹ s⁻¹

## CC(=O)[O-].CC(=O)[O-].[Pd+2] [compound 9, Palladium(II) acetate]
GFP(Y39ThzK) 2B; 100 equiv. [Pd], 6 h
  GFP fluorescence: Yes
GFP(Y39ThzK) 2B; 100 equiv. [Pd], 24 h
  GFP fluorescence: Yes
GFP(Y39ThzK) 2B; 37° C., pH 7.4
  effect on GFP (denaturation / unfolding): immediate denaturation and eventual precipitation

## O=C(O)[C@@H]1CCCN1 [compound 33, L-proline]
glyoxyl-LYRAG 16A; [3]
  Second Order Rate Constant: 0.00009 M⁻¹ s⁻¹
glyoxyl-LYRAG 16A; [6]
  Second Order Rate Constant: 1.684 M⁻¹ s⁻¹
glyoxyl-LYRAG 16A; [4]
  Second Order Rate Constant: 0.0033 M⁻¹ s⁻¹
glyoxyl-LYRAG 16A; [7]
  Second Order Rate Constant: 4.366 M⁻¹ s⁻¹
glyoxyl-LYRAG 16A; [5]
  Second Order Rate Constant: 0.0100 M⁻¹ s⁻¹
glyoxyl-LYRAG 16A; [8]
  Second Order Rate Constant: 7.899 M⁻¹ s⁻¹

## O=C(/C=C/c1ccccc1)/C=C/c1ccccc1.O=C(/C=C/c1ccccc1)/C=C/c1ccccc1.O=C(/C=C/c1ccccc1)/C=C/c1ccccc1.[Pd].[Pd] [compound 12, Tris(dibenzylideneacetone)dipalladium(0)]
GFP(Y39ThzK) 2B; 1 equiv. [Pd], 1 h
  GFP fluorescence: Yes
GFP(Y39ThzK) 2B; 100 equiv. [Pd], 6 h
  GFP fluorescence: Yes
GFP(Y39ThzK) 2B; 100 equiv. [Pd], 24 h
  % conversion (decaging): 80%
  GFP fluorescence: Yes
GFP(Y39ThzK) 2B; 100 equiv. [Pd], 40 h
  % conversion (decaging): 100%
  GFP fluorescence: Yes
GFP(Y39ThzK) 2B; 100 equiv. [Pd], 68 h
  % conversion (decaging): 90%
  GFP fluorescence: Yes
GFP(Y39ThzK) 2B; 200 equiv. [Pd], 6 h
  % conversion (decaging): 40%
  GFP fluorescence: Yes
GFP(Y39ThzK) 2B; ESI-MS, after 24 h
  Conversion of 2B to 13A/B: > 95%
GFP(Y39ThzK) 2B; after condition optimisation
  time to completion of decaging: ≤ 24 h
GFP(Y39ThzK) 2B; initial conditions
  time to complete decaging: 48 h
GFP(Y39ThzK) 2B; 37° C., pH 7.4
  effect on GFP (denaturation / unfolding): did not lead to GFP unfolding

## C1CN[C@H](c2nnn[nH]2)C1 [compound 38, (S)-(−)-5-(2-Pyrrolidinyl)-1H-tetrazole]
glyoxyl-LYRAG 16A; [3]
  Second Order Rate Constant: 0.0092 M⁻¹ s⁻¹
glyoxyl-LYRAG 16A; [6]
  Second Order Rate Constant: 3.792 M⁻¹ s⁻¹
glyoxyl-LYRAG 16A; [4]
  Second Order Rate Constant: 0.0551 M⁻¹ s⁻¹
glyoxyl-LYRAG 16A; [7]
  Second Order Rate Constant: 11.820 M⁻¹ s⁻¹
glyoxyl-LYRAG 16A; [5]
  Second Order Rate Constant: 0.0997 M⁻¹ s⁻¹
glyoxyl-LYRAG 16A; [8]
  Second Order Rate Constant: 23.947 M⁻¹ s⁻¹

## CN(C)c1ccc(P(C(C)(C)C)C(C)(C)C)cc1.CN(C)c1ccc(P(C(C)(C)C)C(C)(C)C)cc1.[Cl-].[Cl-].[Pd+2] [compound 10, dichlorobis[di-tert-butyl(4-dimethylaminophenyl)phosphine]palladium(II)]
GFP(Y39ThzK) 2B; 100 equiv. [Pd], 6 h
  GFP fluorescence: No
GFP(Y39ThzK) 2B; [9]
  % conversion (decaging): 0%
GFP(Y39ThzK) 2B; 100 equiv. [Pd], 24 h
  % conversion (decaging): 0%
  GFP fluorescence: No

## C=C[CH2-].C=C[CH2-].[Cl][Pd+].[Cl][Pd+] [compound 11, Allylpalladium(II) chloride dimer]
GFP(Y39ThzK) 2B
  concentration at which reagent denatures GFP: greater than 0.5 mM
GFP(Y39ThzK) 2B; 1 equiv. [Pd], 1 h
  GFP fluorescence: Yes
GFP(Y39ThzK) 2B; 100 equiv. [Pd], 6 h
  GFP fluorescence: No
GFP(Y39ThzK) 2B; [9]
  % conversion (decaging): 30%
GFP(Y39ThzK) 2B; 100 equiv. [Pd], 24 h
  GFP fluorescence: No
GFP(Y39ThzK) 2B; 37° C., pH 7.4
  effect on GFP (denaturation / unfolding): immediate denaturation and eventual precipitation

## Nc1cc([N+](=O)[O-])ccc1O [compound 59, 2-Amino-4-nitrophenol]
[1]; pH 4.5
  Conjugation Yield (oxime): precipitates
[1]; pH 7.5
  Conjugation Yield (oxime): 97%
[2]; [10]
  Retro-aldol conversion: 0%

## C1CNCCOC1 [compound 37, Homomorpholine]
glyoxyl-LYRAG 16A; [3]
  Second Order Rate Constant: 0.0022 M⁻¹ s⁻¹
glyoxyl-LYRAG 16A; [4]
  Second Order Rate Constant: 0.0166 M⁻¹ s⁻¹
glyoxyl-LYRAG 16A; [5]
  Second Order Rate Constant: 0.0252 M⁻¹ s⁻¹

## Nc1ccccc1 [compound 56, aniline]
[1]; pH 4.5
  Conjugation Yield (oxime): 61%
[1]; pH 7.5
  Conjugation Yield (oxime): 95%
[2]; [10]
  Retro-aldol conversion: 25%

## COc1ccc(N)c(C(=O)O)c1 [compound 58, 5-methoxy anthranilic acid]
[1]; pH 4.5
  Conjugation Yield (oxime): 34%
[1]; pH 7.5
  Conjugation Yield (oxime): 97%
[2]; [10]
  Retro-aldol conversion: 8%

## O=CCc1ccccc1 [phenyl acetylaldehyde]
glyoxyl-LYRAG 16A; with L-proline 33 and tetrazole 38
  increase in rate over aldehyde donors bearing alkyl substituents: ≥ 240 fold

## O=C(O)[C@@H]1CCN1 [compound 36, L-Azetidine 2 carboxylic acid]
glyoxyl-LYRAG 16A; [3]
  Second Order Rate Constant: 0.0004 M⁻¹ s⁻¹
glyoxyl-LYRAG 16A; [4]
  Second Order Rate Constant: 0.0024 M⁻¹ s⁻¹
glyoxyl-LYRAG 16A; [5]
  Second Order Rate Constant: 0.0052 M⁻¹ s⁻¹

## C1CCNCC1 [compound 35, Piperidine]
glyoxyl-LYRAG 16A; [3]
  Second Order Rate Constant: >0.0001 M⁻¹ s⁻¹
glyoxyl-LYRAG 16A; [4]
  Second Order Rate Constant: 0.0009 M⁻¹ s⁻¹
glyoxyl-LYRAG 16A; [5]
  Second Order Rate Constant: 0.0016 M⁻¹ s⁻¹

## COc1ccc(N)cc1 [compound 57, p-anisidine]
[1]; pH 4.5
  Conjugation Yield (oxime): 81%
[1]; pH 7.5
  Conjugation Yield (oxime): 92%
[2]; PB, pH 7.5, conc. 10 (Mm)
  Retro-aldol conversion: 0%
[2]; PB, pH 7.5, conc. 50 (Mm)
  Retro-aldol conversion: 13%
[2]; PB, pH 7.5, conc. 100 (Mm)
  Retro-aldol conversion: 50%
[2]; [10]
  Retro-aldol conversion: 52%
